Results reported in publication PMC9721373 (Antiviral Research, 2022).
Structures can show the parent of a compound that is named as a salt.

Test system: SARS2-S-mediated membrane fusion
Type: cell-based, SARS-CoV-2

CC(CN(C)C)CN1c2ccccc2Sc2ccccc21 (centres unmarked) [Alimemazine tartrate]
SARS2-S-mediated membrane fusion (average number of nuclei in each syncytium): reduced the formation of syncytia
membrane fusion by mutant SARS2-S (Δ69–70, N501Y, E484K, D614G): reduced the formation of syncytia
